From PubChem BioAssay (NCI)
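Values below derive from 48-hour exposures of cells grown in 96-well plates, with endpoints linearly interpolated between the two concentrations bracketing the appropriate inhibition level. The concentration for full growth arrest is given as TGI.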

Key:
Assay in all cases: DTP human tumour cell line panel, 48 h
RXF 393 renal = test system: RXF 393 renal
OVCAR-4 ovarian = test system: OVCAR-4 ovarian
SNB-75 CNS = test system: SNB-75 CNS
CCRF-CEM leukemia = test system: CCRF-CEM leukemia
KM12 colon = test system: KM12 colon
COLO 205 colon = test system: COLO 205 colon
HS 578T breast = test system: HS 578T breast
HCT-15 colon = test system: HCT-15 colon
SNB-19 CNS = test system: SNB-19 CNS
IGROV1 ovarian = test system: IGROV1 ovarian
MCF7 breast = test system: MCF7 breast
K-562 leukemia = test system: K-562 leukemia
LOX IMVI melanoma = test system: LOX IMVI melanoma
SK-MEL-2 melanoma = test system: SK-MEL-2 melanoma
SF-539 CNS = test system: SF-539 CNS
HOP-92 NSCLC = test system: HOP-92 NSCLC
HCC-2998 colon = test system: HCC-2998 colon

For Cc1ccc(C)n1-n1c(Cc2ccc(Cl)cc2)n[nH]c1=O, the TGI (RXF 393 renal) was greater than 100 µM, the TGI (OVCAR-4 ovarian) was greater than 100 µM and the TGI (SNB-75 CNS) was greater than 100 µM. For the same compound, the TGI (CCRF-CEM leukemia) was greater than 100 µM, the TGI (KM12 colon) was greater than 100 µM and the TGI (COLO 205 colon) was greater than 100 µM. For the same compound, the TGI (HS 578T breast) was greater than 100 µM, the TGI (HCT-15 colon) was greater than 100 µM and the TGI (SNB-19 CNS) was greater than 100 µM. For the same compound, the TGI (IGROV1 ovarian) was greater than 100 µM, the TGI (MCF7 breast) was greater than 100 µM and the TGI (K-562 leukemia) was greater than 100 µM. The TGI (LOX IMVI melanoma) was greater than 100 µM and the TGI (SK-MEL-2 melanoma) was greater than 100 µM.
COc1cc(S(=O)(=O)Nc2ccc(-c3csc(/N=C\c4ccccc4O)n3)cc2)ccc1Cl showed a TGI (RXF 393 renal) greater than 100 µM, a TGI (OVCAR-4 ovarian) greater than 100 µM and a TGI (SNB-75 CNS) greater than 100 µM. It also gave a TGI (CCRF-CEM leukemia) greater than 100 µM, a TGI (SF-539 CNS) greater than 100 µM and a TGI (KM12 colon) greater than 100 µM. It also gave a TGI (COLO 205 colon) greater than 100 µM, a TGI (HS 578T breast) greater than 100 µM and a TGI (HCT-15 colon) greater than 100 µM. The TGI (SNB-19 CNS) was greater than 100 µM, the TGI (IGROV1 ovarian) was greater than 100 µM and the TGI (HOP-92 NSCLC) was greater than 100 µM. For the same compound, the TGI (MCF7 breast) was 59.7 µM, the TGI (K-562 leukemia) was greater than 100 µM and the TGI (LOX IMVI melanoma) was greater than 100 µM. It also gave a TGI (SK-MEL-2 melanoma) of 78.5 µM.
In the case of O=c1[nH]ncc2[nH]c(-c3ccccc3)cc12, the TGI (HCC-2998 colon) is reported as greater than 100 µM, the TGI (RXF 393 renal) is reported as 96.5 µM and the TGI (OVCAR-4 ovarian) is reported as greater than 100 µM. The TGI (SNB-75 CNS) was 77 µM, the TGI (CCRF-CEM leukemia) was greater than 100 µM and the TGI (KM12 colon) was greater than 100 µM. The TGI (COLO 205 colon) was greater than 100 µM, the TGI (HCT-15 colon) was greater than 100 µM and the TGI (SNB-19 CNS) was greater than 100 µM. The TGI (IGROV1 ovarian) was greater than 100 µM, the TGI (HOP-92 NSCLC) was greater than 100 µM and the TGI (MCF7 breast) was greater than 100 µM. The TGI (K-562 leukemia) was greater than 100 µM, the TGI (LOX IMVI melanoma) was greater than 100 µM and the TGI (SK-MEL-2 melanoma) was 71 µM.
In the case of CCOC(=O)C(=NN(C)c1ncccc1N)C(=O)OCC, the TGI (RXF 393 renal) is reported as greater than 100 µM, the TGI (OVCAR-4 ovarian) is reported as greater than 100 µM and the TGI (SNB-75 CNS) is reported as greater than 100 µM. The TGI (CCRF-CEM leukemia) was greater than 100 µM, the TGI (SF-539 CNS) was 69.8 µM and the TGI (KM12 colon) was greater than 100 µM. The TGI (COLO 205 colon) was 29 µM, the TGI (HS 578T breast) was greater than 100 µM and the TGI (HCT-15 colon) was greater than 100 µM. The TGI (SNB-19 CNS) was greater than 100 µM, the TGI (IGROV1 ovarian) was greater than 100 µM and the TGI (HOP-92 NSCLC) was 46.2 µM. For the same compound, the TGI (MCF7 breast) was 39.7 µM, the TGI (K-562 leukemia) was 59.1 µM and the TGI (LOX IMVI melanoma) was 38.1 µM. For the same compound, the TGI (SK-MEL-2 melanoma) was greater than 100 µM.
With CC(=O)c1cc2sc3ccccc3c2[nH]1 the TGI (HCC-2998 colon) was greater than 100 µM, the TGI (RXF 393 renal) was greater than 100 µM and the TGI (OVCAR-4 ovarian) was greater than 100 µM. For the same compound, the TGI (SF-539 CNS) was greater than 100 µM, the TGI (KM12 colon) was greater than 100 µM and the TGI (COLO 205 colon) was greater than 100 µM. It also gave a TGI (HCT-15 colon) greater than 100 µM, a TGI (SNB-19 CNS) greater than 100 µM and a TGI (HOP-92 NSCLC) greater than 100 µM. The TGI (MCF7 breast) was greater than 100 µM, the TGI (K-562 leukemia) was greater than 100 µM and the TGI (SK-MEL-2 melanoma) was greater than 100 µM.
O=C(O)CSc1nc2ccccc2[nH]1 showed a TGI (HCC-2998 colon) greater than 100 µM, a TGI (RXF 393 renal) greater than 100 µM and a TGI (OVCAR-4 ovarian) greater than 100 µM. The TGI (SNB-75 CNS) was greater than 100 µM, the TGI (KM12 colon) was greater than 100 µM and the TGI (HS 578T breast) was greater than 100 µM. The TGI (HCT-15 colon) was greater than 100 µM, the TGI (SNB-19 CNS) was greater than 100 µM and the TGI (IGROV1 ovarian) was greater than 100 µM. It also gave a TGI (HOP-92 NSCLC) greater than 100 µM, a TGI (K-562 leukemia) greater than 100 µM and a TGI (LOX IMVI melanoma) greater than 100 µM. For the same compound, the TGI (SK-MEL-2 melanoma) was greater than 100 µM.
For CC(Cc1ccc(O)cn1)(NC(=O)c1ccccc1)C(=O)O (configuration not stated), the TGI (HCC-2998 colon) was greater than 100 µM, the TGI (RXF 393 renal) was greater than 100 µM and the TGI (OVCAR-4 ovarian) was greater than 100 µM. It also gave a TGI (SNB-75 CNS) greater than 100 µM, a TGI (CCRF-CEM leukemia) greater than 100 µM and a TGI (SF-539 CNS) greater than 100 µM. It also gave a TGI (KM12 colon) greater than 100 µM, a TGI (COLO 205 colon) greater than 100 µM and a TGI (HS 578T breast) greater than 100 µM. For the same compound, the TGI (HCT-15 colon) was greater than 100 µM, the TGI (SNB-19 CNS) was greater than 100 µM and the TGI (IGROV1 ovarian) was greater than 100 µM. For the same compound, the TGI (HOP-92 NSCLC) was greater than 100 µM, the TGI (K-562 leukemia) was greater than 100 µM and the TGI (LOX IMVI melanoma) was greater than 100 µM. It also gave a TGI (SK-MEL-2 melanoma) greater than 100 µM.
